According to PMC5846726, “Characterization of the Mel1c melatoninergic receptor in platypus (Ornithorhynchus anatinus)” (PLoS ONE, 2018):
Where two headings read alike, the source gives them in different places.

How the values were obtained:
[1] = tested on: MT1; conditions: introduction statement; cited from earlier work
[2] = tested on: GPR50; conditions: mammalian melatonin-related receptor; cited from earlier work
[3] = target: T1, Xenopus Mel1C (Xenopus laevis, UniProt P49219); assay: 2-[125I]-iodomelatonin competition binding, membranes from stably transfected CHO cells, Xenopus Mel1c; conditions: radioligand 2-[125I]-iodomelatonin
T1 construct: expressed in transfected cells
T1 sequence (P49219 1-420): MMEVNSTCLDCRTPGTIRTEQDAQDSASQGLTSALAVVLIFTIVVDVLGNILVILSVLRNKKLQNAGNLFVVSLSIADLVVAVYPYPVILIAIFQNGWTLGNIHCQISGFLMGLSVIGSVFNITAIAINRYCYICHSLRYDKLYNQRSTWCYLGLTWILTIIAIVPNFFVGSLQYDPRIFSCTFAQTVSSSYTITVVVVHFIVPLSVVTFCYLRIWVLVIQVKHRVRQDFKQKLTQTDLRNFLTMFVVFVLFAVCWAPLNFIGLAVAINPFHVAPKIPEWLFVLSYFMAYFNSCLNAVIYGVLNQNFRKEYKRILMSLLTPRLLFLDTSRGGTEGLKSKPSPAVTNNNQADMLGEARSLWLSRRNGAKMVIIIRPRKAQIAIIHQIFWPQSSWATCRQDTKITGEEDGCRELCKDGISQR
Protocol: (§1) CHO-Flp-In cells (Thermo Fisher Scientific, Waltham, USA) were cultivated in the presence of zeocin (0.1 mg/ml). The cells were cotransfected with either platypus (cloned sequence that will be submitted to GenBank) Mel1c/pcDNA5-FRT (platypus Mel1c) or X. laevis (NM 001087919.1) Mel1c/pcDNA5-FRT (clawed frog Mel1c) and Flp recombinase expression pOG44 plasmid using PEIpro (Invitrogen, Carlsbad, CA). CHO cells stably expressing platypus Mel1c or clawed frog Mel1c were selected using hygromycin (0.6 mg/ml). CHO-Flp-In-platypus Mel1c cells were grown in HAM F12 with 2 mM glutamine and supplemented with 10% fetal calf serum. Cells were selected using antibiotic pressure (hygromycin) for 72 h. […] After confirmation of the presence of the transgene, the cells were amplified up to 2 x 10^9 cells. This material was used to prepare the cell membranes used in further pharmacological experiments.
(§2) This standard procedure was described in a previous experiment with CHO cells expressing the sheep MT2 receptor [23]. […] The resulting pellet was suspended in 5 mM Tris/HCl (pH 7.4) containing 2 mM EDTA and homogenized using a Kinematica polytron. The homogenate was then centrifuged (20,000g, 30 min, 4°C) and the resulting pellet suspended in 75 mM Tris/HCl (pH 7.4) containing 2 mM EDTA and 12.5 mM MgCl2. The protein content was determined according to the method of Lowry et al. using the Bio-Rad kit (Bio-Rad SA, Ivry-sur-Seine, France). Aliquots of membrane preparations were stored in binding buffer (50 mM Tris/HCl, pH 7.4 containing 5 mM MgCl2 and 1 mM EDTA) at –80°C until use.
(§3) This approach has been described very often by our laboratory and others. […] The results were expressed as Ki, taking into account the concentration of radioligand used in each experiment. […] The reaction was stopped by rapid filtration through GF/B Unifilters, followed by three successive washes with ice-cold buffer. Data were analyzed by using the program PRISM (GraphPad Software Inc., San Diego, CA). For saturation assays, the density of binding sites (Bmax) and the dissociation constant of the radioligand (KD) were calculated according to the Scatchard method. […] A similar protocol was used when the binding was performed on whole cells, as described by Legros et al.. As per Plos One policy, all the raw data–listings from radioactivity counter are attached as raw files (Supplementary Tables A to M in S1 Data).

[4] = tested on: MT2; conditions: introduction statement; cited from earlier work
[5] = tested on: quinone reductase 2; QR2; set-up: method as in PMID 10913150; conditions: introduction statement, 'in the 10 μM range'; cited from earlier work
[6] = target: T2, Platypus Mel1C (Ornithorhynchus anatinus, UniProt A0A2P1K6N2); assay: 2-[125I]-iodomelatonin competition binding, membranes from stably transfected CHO cells, platypus Mel1c
T2 sequence (A0A2P1K6N2 1-349): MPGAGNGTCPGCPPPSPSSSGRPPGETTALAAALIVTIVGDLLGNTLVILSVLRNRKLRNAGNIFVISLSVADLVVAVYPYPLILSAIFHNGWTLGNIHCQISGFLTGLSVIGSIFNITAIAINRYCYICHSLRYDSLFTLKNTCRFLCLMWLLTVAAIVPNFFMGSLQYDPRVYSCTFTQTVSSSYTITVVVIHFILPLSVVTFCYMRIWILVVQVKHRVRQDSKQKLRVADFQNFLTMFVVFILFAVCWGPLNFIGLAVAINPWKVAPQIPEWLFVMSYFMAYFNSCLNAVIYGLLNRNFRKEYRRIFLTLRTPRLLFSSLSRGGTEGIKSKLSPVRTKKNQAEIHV
Protocol: as §1, §2, §3

[7] = target: T2, Platypus Mel1C; assay: 2-[125I]-iodomelatonin competition binding, transiently transfected COS7 cells, platypus Mel1c; conditions: COS7 cells transiently transfected with Mel1c gene; radioligand 2-[125I]-iodomelatonin; two transfections, triplicate
Protocol: (§4) COS7 cells obtained from the American Type Culture Collection were maintained in DMEM GlutaMAX (Thermo Fisher Scientific, Waltham, USA) supplemented with 10% (v/v) fetal calf serum. Nucleofection of COS7 cells was performed according to the manufacturer's instructions using the Nucleofector machine (Amaxa, Cologne, Germany). Adherent COS7 cells were washed in phosphate-buffered saline (PBS), trypsinized, and gently resuspended in V nucleofection solution to a final concentration of 7 × 10^6 cells/100 μl. Next, 5 μg of pCIneo/Mel1c vector was mixed with 100 μl of the COS7 cell suspension, transferred to a […] electroporation cuvette, and nucleofected using program A024 and an Amaxa Nucleofector apparatus. Just after the nucleofection, 500 μl of media supplemented with 20% (v/v) fetal calf serum was added to the cell suspension and cultured in a humidified 37°C, 5% CO2 incubator for 20 minutes. Fourteen million cells were transferred to a T225 flask containing 50 ml of media supplemented with 20% (v/v) fetal calf serum and cultured in a humidified 37°C, 5% CO2 incubator. Two days after transfection, the cells were harvested in PBS, pelleted, and stored at -80°C until use.
as §3
(§5) To obtain stable expression of the receptor for future studies, a preliminary step involving transient expression of the receptor was performed. The Mel1c receptors from the three species were expressed in transiently transfected COS7 cells. A limited number of compounds were tested in order to gain a preliminary perception of the characteristics of Mel1c from these species.

[8] = target: T3, X. laevis Mel1c receptor (Xenopus laevis, UniProt P49219); assay: 2-[125I]-iodomelatonin competition binding, transiently transfected COS7 cells, Xenopus Mel1c; conditions: COS7 cells transiently transfected with Mel1c gene; radioligand 2-[125I]-iodomelatonin; two transfections, triplicate; read-out: pKi Xenopus laevis (converted)
T3 construct: expressed in transfected cells; host or cells: COS7 (transient nucleofection, pCIneo vector)
T3 sequence (P49219 1-354 isoform P49219-2): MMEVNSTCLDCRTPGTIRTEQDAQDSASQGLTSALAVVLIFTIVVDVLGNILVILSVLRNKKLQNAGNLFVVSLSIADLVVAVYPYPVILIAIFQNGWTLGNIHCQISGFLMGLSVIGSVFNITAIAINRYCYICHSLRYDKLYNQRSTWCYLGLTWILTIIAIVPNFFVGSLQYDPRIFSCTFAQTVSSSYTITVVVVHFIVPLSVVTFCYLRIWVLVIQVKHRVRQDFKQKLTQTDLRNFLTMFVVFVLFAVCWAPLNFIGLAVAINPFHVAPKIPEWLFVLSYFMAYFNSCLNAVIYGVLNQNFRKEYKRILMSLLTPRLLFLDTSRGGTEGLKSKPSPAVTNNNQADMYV
Protocol: as §4, §3, §5

[9] = target: T4, hMT2 (Homo sapiens, UniProt P49286); assay: 2-[125I]-iodomelatonin competition binding, human MT2; conditions: membranes from stably transfected CHO cells; radioligand 2-[125I]-iodomelatonin; read-out: hMT2 (converted)
T4 sequence (P49286 1-362): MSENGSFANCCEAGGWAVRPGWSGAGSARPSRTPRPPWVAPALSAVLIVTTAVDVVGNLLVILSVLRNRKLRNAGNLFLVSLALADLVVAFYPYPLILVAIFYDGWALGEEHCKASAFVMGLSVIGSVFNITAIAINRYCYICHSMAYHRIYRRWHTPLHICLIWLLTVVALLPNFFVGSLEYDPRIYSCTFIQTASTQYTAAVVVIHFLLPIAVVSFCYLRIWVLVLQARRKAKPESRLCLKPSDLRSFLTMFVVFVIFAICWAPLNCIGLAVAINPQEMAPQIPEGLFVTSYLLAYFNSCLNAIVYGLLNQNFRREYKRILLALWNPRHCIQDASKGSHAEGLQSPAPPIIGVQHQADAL
Protocol: as §3

[10] = target: T5, G. gallus Mel1c receptor (Gallus gallus, UniProt P49288); assay: 2-[125I]-iodomelatonin competition binding, transiently transfected COS7 cells, chicken Mel1c
T5 construct: expressed in transfected cells; host or cells: COS7 (transient nucleofection, pCIneo vector)
T5 sequence (P49288 1-346): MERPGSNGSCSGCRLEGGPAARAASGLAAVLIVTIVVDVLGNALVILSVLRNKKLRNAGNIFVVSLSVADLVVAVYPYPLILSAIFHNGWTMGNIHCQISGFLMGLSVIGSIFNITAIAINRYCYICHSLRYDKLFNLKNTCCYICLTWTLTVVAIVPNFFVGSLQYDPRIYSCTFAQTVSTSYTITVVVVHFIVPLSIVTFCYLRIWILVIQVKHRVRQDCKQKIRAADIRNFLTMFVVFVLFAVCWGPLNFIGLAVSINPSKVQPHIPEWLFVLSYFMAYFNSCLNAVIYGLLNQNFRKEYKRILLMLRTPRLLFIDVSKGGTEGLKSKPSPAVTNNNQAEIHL
Protocol: as §4, §3, §5

[11] = target: hMT1 (Homo sapiens, UniProt P48039); assay: 2-[125I]-iodomelatonin competition binding, human MT1; conditions: membranes from stably transfected CHO cells; radioligand 2-[125I]-iodomelatonin; read-out: hMT1 (converted)
hMT1, sequence (P48039 whole entry): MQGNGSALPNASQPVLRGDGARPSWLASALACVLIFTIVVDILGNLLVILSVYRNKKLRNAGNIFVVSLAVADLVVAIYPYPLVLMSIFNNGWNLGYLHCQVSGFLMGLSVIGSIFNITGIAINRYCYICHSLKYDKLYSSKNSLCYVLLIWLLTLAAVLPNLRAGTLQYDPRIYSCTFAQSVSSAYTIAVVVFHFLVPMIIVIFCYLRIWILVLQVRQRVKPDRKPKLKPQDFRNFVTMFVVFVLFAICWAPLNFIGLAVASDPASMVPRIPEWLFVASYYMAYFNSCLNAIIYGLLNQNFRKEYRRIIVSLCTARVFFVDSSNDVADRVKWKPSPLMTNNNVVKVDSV
Protocol: as §3

[12] = membranes from stably transfected CHO cells, radioligand 2-[125I]-iodomelatonin, read-out: Platypus Mel1C (converted)

SMILES: COc1ccc2[nH]cc(CCNC(C)=O)c2c1 [Melatonin]
- affinity of MT1 for melatonin [1]: ≤ 1 nM
- melatonin binding to GPR50 [2]: does not bind melatonin
- Ki [3]: 2 nM
- affinity of MT2 for melatonin [4]: ≤ 1 nM
- affinity of QR2 for melatonin [5]: ~10 µM
- Ki ([6]; affinity of platypus Mel1c for melatonin, abstract statement, 'in the 1 nM range'): ~1 nM
- Ki [6, 12]: 2 nM
- pKi Ornithorhyncus anatinus [7]: 8.6
- Ki [8]: 1.58 nM

SMILES: CCC(=O)N[C@@H]1Cc2ccccc2[C@H](c2ccccc2)C1 [4P-PDOT, N-[(2S,4S)-4-phenyl-1,2,3,4-tetrahydronaphthalen-2-yl]propanamide]
- Ki [9]: 1.26 nM
- Ki [3]: 794 nM
- Ki [10]: 398 nM
- Ki [11]: 158 nM
- Ki [6, 12]: 631 nM
- pKi Ornithorhyncus anatinus [7]: 6.7
- Ki [8]: 200 nM
